We go through eleven compounds from PubChem BioAssay (NCI).

Where “and” joins values, the source holds several entries; their conditions need not be identical. Equal entries are not always repeated.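 Results reflect a 48-hour exposure of cells in 96-well plates to compound at five concentrations. Here, GI50 denotes the concentration required for 50% inhibition of growth. TGI marks complete inhibition of growth.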 Where a SMILES comes first, the peptide text is derived from it. The star is where a group is joined. Cbz = O=C(OCc1ccccc1)*

Test systems include TK-10 renal; MALME-3M melanoma; UACC-62 melanoma; KM12 colon; IGROV1 ovarian; LOX IMVI melanoma; T-47D breast; BT-549 breast; HOP-62 NSCLC; COLO 205 colon; SK-OV-3 ovarian; SR leukemia; UACC-257 melanoma.
What all share (test): DTP human tumour cell line panel, 48 h

For `O=C(O)CSC1=NCCN1`, the TGI in the experiment on TK-10 renal, in the experiment with MALME-3M melanoma, in the experiment on UACC-62 melanoma, in the experiment on KM12 colon, in the experiment on IGROV1 ovarian and in the experiment with LOX IMVI melanoma was over 100 µM each time. The TGI in the experiment on T-47D breast, in the experiment on BT-549 breast, in the experiment with HOP-62 NSCLC, with COLO 205 colon, in the experiment on SK-OV-3 ovarian and in the experiment with SR leukemia was over 100 µM throughout.
Turning to `Cc1ccc(N=NC(=Nc2ccc(F)cc2)c2ccc(N(CCC#N)CCC#N)cc2)cc1`, the total growth inhibition concentration (TGI) (usually the concentration at which net growth stops) is over 100 µM in the experiment with TK-10 renal; 91.3 µM with UACC-257 melanoma; over 100 µM in the experiment on UACC-62 melanoma; over 100 µM in the experiment on KM12 colon; over 100 µM in the experiment with IGROV1 ovarian; over 100 µM with T-47D breast. Besides, the TGI in the experiment with BT-549 breast, with HOP-62 NSCLC, with COLO 205 colon, with SK-OV-3 ovarian and with SR leukemia was over 100 µM throughout.
`CC(C)(C)c1ccc(O)c(C(O)c2ccccn2)c1` (stereo unspecified): the TGI was over 100 µM in the experiment on TK-10 renal; over 100 µM with MALME-3M melanoma; 26.4 µM with UACC-62 melanoma; over 100 µM in the experiment on KM12 colon; over 100 µM with LOX IMVI melanoma; 80.9 µM in the experiment on T-47D breast. Moreover, the TGI in the experiment with BT-549 breast, with HOP-62 NSCLC, in the experiment with COLO 205 colon and with SR leukemia was over 100 µM in each case.
In the case of `CC(C)(C)OC(=O)C1C(=O)NC(=O)CC1C(OCc1ccccc1)C(OCc1ccccc1)C(COCc1ccccc1)OCc1ccccc1` (stereo unspecified), the TGI with TK-10 renal was over 100 µM; in the experiment on MALME-3M melanoma, > 100 µM and 73 µM; with UACC-257 melanoma it was over 100 µM; with KM12 colon, over 100 µM; in the experiment with IGROV1 ovarian, over 100 µM; in the experiment on LOX IMVI melanoma, over 100 µM. In addition, the total growth inhibition concentration (TGI) in the experiment with T-47D breast was 14.6 µM; in the experiment with BT-549 breast it was over 100 µM; in the experiment with COLO 205 colon, over 100 µM; in the experiment with SR leukemia it was over 100 µM. Also, the GI50 (as a rule, the concentration giving 50% growth inhibition) in the experiment on MALME-3M melanoma is > 100 µM and 15.7 µM; with KM12 colon, > 100 µM and 24.5 µM; in the experiment with LOX IMVI melanoma it was > 100 µM and 41.8 µM; with BT-549 breast, > 100 µM and 31.7 µM; in the experiment with SR leukemia, > 100 µM and 35.1 µM.
As to `COc1cc(/C=C2\CC3C4CC=C5C[C@@H](O)CC[C@]5(C)C4CC[C@]3(C)\C2=N\O)cc(OC)c1OC` (stereo partly specified), the total growth inhibition concentration (TGI) with TK-10 renal was over 100 µM; with MALME-3M melanoma, 50 µM; in the experiment with UACC-257 melanoma, 61.1 µM; in the experiment on UACC-62 melanoma, 24 µM; in the experiment on KM12 colon, 23.5 µM; with IGROV1 ovarian it was over 100 µM. Also, the TGI with LOX IMVI melanoma was 63.2 µM; in the experiment with T-47D breast, 18.8 µM; in the experiment on BT-549 breast it was 37.2 µM; with HOP-62 NSCLC it was over 100 µM; in the experiment on COLO 205 colon, 16.9 µM; with SK-OV-3 ovarian it was over 100 µM.
Regarding `O=S(=O)(O)c1cc(O)c(N=NC2S(=O)(=O)OCCOS2(=O)=O)c2ccccc12`, the total growth inhibition concentration (TGI) in the experiment with TK-10 renal, with MALME-3M melanoma, in the experiment with UACC-257 melanoma, with UACC-62 melanoma, in the experiment on KM12 colon and in the experiment with IGROV1 ovarian was over 100 µM throughout. For the same compound, the concentration for total growth inhibition (TGI) in the experiment with LOX IMVI melanoma, in the experiment on T-47D breast, in the experiment with BT-549 breast, in the experiment on HOP-62 NSCLC, in the experiment with COLO 205 colon and in the experiment with SK-OV-3 ovarian was over 100 µM in each case.
For `Fc1ccc(F)c(C=NC23CC4CC(CC(C4)C2)C3)c1`, the TGI with TK-10 renal, with MALME-3M melanoma, with UACC-257 melanoma, in the experiment on KM12 colon, in the experiment with IGROV1 ovarian and with LOX IMVI melanoma was over 10 µM each time. Moreover, the TGI in the experiment on T-47D breast, in the experiment with BT-549 breast, in the experiment with HOP-62 NSCLC, in the experiment on COLO 205 colon, with SK-OV-3 ovarian and with SR leukemia was over 10 µM each time.
Consider `CCOC(=O)CCC(NC(=O)C(CC(=O)OC)NC(=O)OCc1ccccc1)C(=O)NC(CC(=O)OC)C(=O)NC(CCC(=O)OCC)C(=O)NC(CC(=O)OC)C(=O)NC(CCC(=O)OCC)C(=O)NC(CC(=O)OCC)C(=O)OCC` (stereo unspecified) (Cbz-D(OMe)E(OEt)D(OMe)E(OEt)D(OMe)E(OEt)D(OEt)-OEt; configuration not given here), for which the total growth inhibition concentration (TGI) in the experiment with TK-10 renal, in the experiment with MALME-3M melanoma, with UACC-257 melanoma, in the experiment with UACC-62 melanoma, in the experiment on IGROV1 ovarian and in the experiment with LOX IMVI melanoma was over 100 µM in each case. In addition, the concentration for total growth inhibition (TGI) with T-47D breast, with BT-549 breast, in the experiment with HOP-62 NSCLC and in the experiment on SR leukemia was over 100 µM throughout.
Turning to `Cn1c2ccccc2n2c(=O)c(-c3ccc(Cl)cc3)nnc12`, the concentration for total growth inhibition (TGI) with TK-10 renal, with MALME-3M melanoma, in the experiment with UACC-257 melanoma, with KM12 colon, with IGROV1 ovarian and with LOX IMVI melanoma was over 100 µM each time. For the same compound, the TGI with T-47D breast, in the experiment on BT-549 breast, with COLO 205 colon and in the experiment on SR leukemia was over 100 µM each time.
With `Cc1ccc(S(=O)(=O)N(CC(O)COc2ccccc2)c2c(F)c(F)c(F)c(F)c2F)cc1` (stereo unspecified), the TGI in the experiment with TK-10 renal was 71.1 µM; with MALME-3M melanoma, 53.1 µM; with UACC-62 melanoma, 33.5 µM; in the experiment with KM12 colon it was over 100 µM; in the experiment with LOX IMVI melanoma, 28.6 µM; in the experiment on T-47D breast it was 52.4 µM. Also, the TGI stood at 28.7 µM with BT-549 breast; 35.2 µM in the experiment on HOP-62 NSCLC; 29.8 µM with COLO 205 colon; 43.8 µM in the experiment with SK-OV-3 ovarian; 47.7 µM in the experiment on SR leukemia.
Consider `CCN(CC)C1=Nc2ccccc2-n2ccnc2C1`, for which the TGI with TK-10 renal, in the experiment on UACC-257 melanoma, in the experiment with UACC-62 melanoma, with KM12 colon, with IGROV1 ovarian and with LOX IMVI melanoma was over 100 µM throughout. The concentration for total growth inhibition (TGI) in the experiment with T-47D breast, with BT-549 breast, in the experiment on HOP-62 NSCLC, in the experiment on COLO 205 colon and with SR leukemia was over 100 µM throughout.
